In PubChem BioAssay (NCI):
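Five concentrations, 48 hours, 96-well plates. TGI is the concentration that stops growth completely.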

How the values were obtained:
Test in all cases: DTP human tumour cell line panel, 48 h
[1] = tested on: LOX IMVI melanoma
[2] = tested on: SK-MEL-28 melanoma
[3] = tested on: SNB-75 CNS
[4] = tested on: SK-OV-3 ovarian
[5] = tested on: PC-3 prostate
[6] = tested on: SK-MEL-2 melanoma
[7] = tested on: CCRF-CEM leukemia
[8] = tested on: SN12C renal
[9] = tested on: COLO 205 colon
[10] = tested on: RPMI-8226 leukemia
[11] = tested on: HCT-116 colon
[12] = tested on: NCI-H23 lung
[13] = tested on: RXF 393 renal
[14] = tested on: MDA-N
[15] = tested on: K-562 leukemia
[16] = tested on: SR leukemia
[17] = tested on: OVCAR-5 ovarian
[18] = tested on: A498 renal
[19] = tested on: HCC-2998 colon
[20] = tested on: U251 CNS
[21] = tested on: NCI/ADR-RES ovarian
[22] = tested on: HCT-15 colon
[23] = tested on: SNB-19 CNS
[24] = tested on: UACC-257 melanoma
[25] = tested on: HT29 colon
[26] = tested on: SF-539 CNS
[27] = tested on: SF-268 CNS
[28] = tested on: MOLT-4 leukemia
[29] = tested on: HL-60(TB) leukemia
[30] = tested on: UO-31 renal
[31] = tested on: 786-0 renal
[32] = tested on: ACHN renal
[33] = tested on: MDA-MB-435
[34] = tested on: MCF7 breast
[35] = tested on: NCI-H226 lung
[36] = tested on: M14 melanoma
[37] = tested on: MDA-MB-231 breast
[38] = tested on: SK-MEL-5 melanoma
[39] = tested on: KM12 colon
[40] = tested on: NCI-H460 lung
[41] = tested on: OVCAR-3 ovarian
[42] = tested on: DU-145 prostate
[43] = tested on: HS 578T breast
[44] = tested on: OVCAR-8 ovarian
[45] = tested on: A549 NSCLC
[46] = tested on: IGROV1 ovarian
[47] = tested on: OVCAR-4 ovarian
[48] = tested on: SF-295 CNS
[49] = tested on: HOP-62 NSCLC
[50] = tested on: BT-549 breast
[51] = tested on: UACC-62 melanoma
[52] = tested on: EKVX NSCLC
[53] = tested on: CAKI-1 renal
[54] = tested on: TK-10 renal
[55] = tested on: SW-620 colon
[56] = tested on: MALME-3M melanoma

SMILES: CCOC(=O)C(O)(NC(=O)NC(O)(C(=O)OCC)C(F)(F)F)C(F)(F)F (stereo unspecified)
- TGI [1]: > 100 µM
- TGI [2]: > 100 µM
- TGI [3]: > 100 µM
- TGI [4]: > 100 µM
- TGI [5]: > 100 µM
- TGI [6]: > 100 µM
- TGI [7]: > 100 µM
- TGI [8]: > 100 µM
- TGI [9]: > 100 µM
- TGI [10]: > 100 µM
- TGI [11]: > 100 µM
- TGI [12]: > 100 µM
- TGI [13]: > 100 µM
- TGI [14]: > 100 µM
- TGI [15]: > 100 µM
- TGI [16]: > 100 µM
- TGI [17]: > 100 µM
- TGI [18]: > 100 µM
- TGI [19]: > 100 µM
- TGI [20]: > 100 µM
- TGI [21]: > 100 µM
- TGI [22]: > 100 µM
- TGI [23]: > 100 µM
- TGI [24]: > 100 µM
- TGI [25]: > 100 µM
- TGI [26]: > 100 µM
- TGI [27]: > 100 µM
- TGI [28]: > 100 µM
- TGI [29]: > 100 µM
- TGI [30]: > 100 µM
- TGI [31]: > 100 µM
- TGI [32]: > 100 µM

SMILES: C(=C\c1cc(-c2ccc3ccccc3n2)nc2ccc3ccccc3c12)/c1ccc2ccccc2n1
- TGI [1]: > 100 µM
- TGI [2]: > 100 µM
- TGI [3]: 97.9 µM
- TGI [4]: > 100 µM
- TGI [5]: > 100 µM
- TGI [33]: > 100 µM
- TGI [34]: > 100 µM
- TGI [35]: > 100 µM
- TGI [7]: > 100 µM
- TGI [36]: > 100 µM
- TGI [37]: > 100 µM
- TGI [38]: > 100 µM
- TGI [8]: > 100 µM
- TGI [39]: > 100 µM
- TGI [40]: > 100 µM
- TGI [41]: > 100 µM
- TGI [42]: > 100 µM
- TGI [43]: > 100 µM
- TGI [9]: > 100 µM
- TGI [10]: > 100 µM
- TGI [11]: > 100 µM
- TGI [13]: > 100 µM
- TGI [44]: > 100 µM
- TGI [14]: > 100 µM
- TGI [15]: > 100 µM
- TGI [16]: > 100 µM
- TGI [17]: > 100 µM
- TGI [18]: > 100 µM
- TGI [19]: > 100 µM
- TGI [20]: > 100 µM
- TGI [45]: > 100 µM
- TGI [46]: > 100 µM
- TGI [21]: > 100 µM
- TGI [22]: > 100 µM
- TGI [47]: > 100 µM
- TGI [23]: > 100 µM
- TGI [48]: > 100 µM
- TGI [49]: > 100 µM
- TGI [24]: > 100 µM
- TGI [25]: > 100 µM
- TGI [26]: > 100 µM
- TGI [50]: > 100 µM
- TGI [51]: > 100 µM
- TGI [52]: > 100 µM
- TGI [27]: > 100 µM
- TGI [28]: > 100 µM
- TGI [53]: > 100 µM
- TGI [54]: > 100 µM
- TGI [29]: > 100 µM
- TGI [55]: > 100 µM
- TGI [56]: > 100 µM
- TGI [30]: > 100 µM
- TGI [31]: > 100 µM
- TGI [32]: > 100 µM
